Measurements published in patent US20220280423A1, “GLYMPHATIC DELIVERY BY MANIPULATING PLASMA OSMOLARITY” (University of Rochester, priority 2018, published 2022).

Experiments:
BBB = test: Assessment of BBB permeability (FITC-dextran extravasation); assay type: in vivo, C57BL/6 mice; conditions: anesthetized mice, 30 min after i.p. injection
Procedure: Assessment of BBB Permeability. For quantification of BBB disruption, a 1% solution of FITC-conjugated dextran (70 kDa; Sigma-Aldrich) in normal saline (4 mL/kg of body weight) was injected via the femoral vein. The dextran was allowed to circulate for 30 min following plasma tonicity manipulations, at which point a plasma sample was taken and the mice were perfusion-fixed as described below. Positive controls received a 2M mannitol infusion via a catheter in the right external carotid artery (0.64 mL/min for 30 seconds) 5 minutes after the dextran. The brains were harvested, sectioned, and FITC extravasation was imaged and quantified (see below). Plasma concentration of the FITC dextran was calculated by diluting the plasma samples 1:4 with PBS and analyzing them in triplicate on a fluorescence microplate reader (SpectraMax M2, Molecular Devices) at 458 nm excitation, 538 nm emission, with a cutoff above 530 nm at room temperature (24° C.). Dextran concentration was estimated by comparing the relative fluorescence of the samples against a standard curve (0.0-1.0 mg/mL, 0.1 mg/mL steps; FITC-dextran 70 kDa in PBS) fitted with a linear regression. Blood samples with hemolysis were excluded from analysis due to interference with spectrophotometric absorbance readings.
Image Analysis. All images were analyzed using ImageJ software (National Institutes of Health, imagej.nih.gov/ij/) (60). […]

[1] = Intracranial pressure, arterial blood pressure and laser Doppler cerebral blood flow; assay type: in vivo, C57BL/6 mice
Text: Intracranial and Arterial Blood Pressure Measurements. A separate group of animals were anesthetized with a mixture of ketamine/xylazine. Afterwards, a 30 G needle connected to rigid polyethylene tubing filled with aCSF was inserted into the cisterna magna as described above and an arterial catheter was placed in the femoral artery. The lines were connected to a pressure transducer and monitor (World Precision Instruments). Recordings were allowed to stabilize, and then recorded continuously for 35 min (5 min baseline and 30 min after i.p. injection). The signals were digitized and recorded with a DigiData 1440A digitizer and AxoScope software (Axon Instruments). The intracranial and mean arterial pressure recordings were processed and analyzed using MATLAB (MathWorks).
Laser Doppler Flowmetry. Relative changes in cerebral blood flow (rCBF) were measured using laser Doppler flowmetry (PF5010 Laser Doppler Perfusion Module with microtips, PR 418-1, Perimed). The tip of the fiber optic probe was fixed directly onto the exposed skull with cyanoacrylate glue. Signals were collected using a 1440A digitizer and AxoScope software (Axon Instruments). For each mouse, rCBF was recorded both 5 minutes before and 30 minutes after the administration of i.p. solutions. The rCBF recordings were processed and analyzed using MATLAB (MathWorks).
Consequently, assays were carried out to determine if tonicity-induced changes in one of these parameters might be responsible for the observed enhancement of glymphatic CSF influx. […] This net negative ICP resulted from the outflow of ISF across the BBB (FIG. 15D), and likely provided the necessary driving force to increase CSF influx to cerebral tissues. Importantly. this transfer of brain water to the vascular column occurred across an intact BBB (FIGS. 12A-C).

glymphatic CSF influx [2] = test: Transcranial macroscopic imaging of CSF tracer (BSA-647) influx, plasma hypertonicity in awake mice; assay type: in vivo, C57BL/6 mice
Procedure: Intracisternal injections. Mice in the KX groups were weighed and anesthetized with a mixture of ketamine (100 mg/kg, i.p.) and xylazine (10 mg/kg, i.p.). Afterwards, animals were fixed in a stereotaxic frame, and the cisterna magna was surgically exposed with the help of a stereomicroscope. The cisternal space was cannulated using a 30 G needle attached via polyethylene tubing to a Hamilton syringe. The needle was secured with cyanoacrylate glue and tracers were infused with a syringe pump (Harvard Apparatus) depending on the experimental paradigm (see below). […]
Transcranial In vivo Macroscopic Imaging. […] The entry of CSF tracers into the brain was imaged by fluorescence macroscopy (MVX10, Olympus) using a PRIOR Lumen 1600-LED light source and Flash 4.0 digital camera (Hamamatsu). […]
Front tracking. To quantify the area and speed of fluorescent CSF tracer influx in the brain, inventors employed an algorithm recently developed in the context of advection-reaction-diffusion (56). […] The algorithm outputs spatially- and temporally-resolved velocity measurements quantifying the front propagation. Influx speed was calculated by averaging over the entire group data to obtain mean front speed measurements for each group. […] A fixed threshold preserved the physical meaning of the front and allowed for quantitative comparison between populations from different experiments. […]

[3] = Plasma osmolality after intraperitoneal injection; assay type: in vivo, C57BL/6 mice; conditions: i.p., KX-anesthetized mice, lasting 30 minutes
Procedure: Solutions. Control mice received isosmotic saline ([…]; 20 μL/g, i.p.). Hyperosmolality was induced either with mannitol (1M in 0.34M NaCl; 30 μL/g, i.p.) or hypertonic saline (1M NaCl in ddH2O; 20 μL/g, i.p.). Thirty minutes after intraperitoneal injection, a plasma sample was taken, and the mouse decapitated. Plasma osmolality was measured in triplicate using a micro-osmometer (Advanced Instruments).

glymphatic CSF influx [4] = test: Transcranial macroscopic imaging of CSF tracer (BSA-647) influx, plasma hypertonicity in KX-anesthetized mice; assay type: in vivo, C57BL/6 mice
Procedure: Intracisternal injections. Mice in the KX groups were weighed and anesthetized with a mixture of ketamine (100 mg/kg, i.p.) and xylazine (10 mg/kg, i.p.). Afterwards, animals were fixed in a stereotaxic frame, and the cisterna magna was surgically exposed with the help of a stereomicroscope. The cisternal space was cannulated using a 30 G needle attached via polyethylene tubing to a Hamilton syringe. The needle was secured with cyanoacrylate glue and tracers were infused with a syringe pump (Harvard Apparatus) depending on the experimental paradigm (see below). Mice randomized to the awake group were anesthetized with 2% isoflurane, their skull cemented to a customized head plate, placed in a restraint tube, and then underwent the same surgical procedure as described above. Tracers were allowed to circulate for 30 min after the injection start time and the needle left in place for the duration of the experiment to prevent the CSF compartment from depressurizing. Core temperature (37° C.) and anesthetic depth were maintained throughout the experiment. At the end of 30 min, animals were decapitated, and the brain processed for either fluorescent or radioisotope tracer analysis.
CSF Tracers. AlexaFluor647-conjugated bovine serum albumin (BSA-647, 66 kDa, Invitrogen) was constituted in artificial CSF (0.5% m/v) and used as a fluorescent CSF tracer. […] Fluorescent tracers and antibodies were infused in a total volume of 10 μl at a rate of 2 μl/min or 1 μl/min into the cisterna magna.
Transcranial In vivo Macroscopic Imaging. For in vivo imaging, the skin covering the dorsal calvarium was incised and reflected laterally prior to cannulating the cisterna magna. The entry of CSF tracers into the brain was imaged by fluorescence macroscopy (MVX10, Olympus) using a PRIOR Lumen 1600-LED light source and Flash 4.0 digital camera (Hamamatsu). The mouse fixed on the stereotaxic frame was placed on the microscope stage and images at 20× magnification were acquired in the far-red emission channel (647 nm). Images (2048×2048 pixel; 5.7120 μm/pixel) were collected at 1 min intervals for 0-30 min following injection commencement using the MetaMorph Basic imaging software (Molecular Devices). Exposure time was held constant throughout the duration of the imaging sequence and across experimental groups.
Front tracking. To quantify the area and speed of fluorescent CSF tracer influx in the brain, inventors employed an algorithm recently developed in the context of advection-reaction-diffusion (56). Given a time series of a two-dimensional concentration field, this algorithm tracked the location of the “front” which separates low-concentration and high-concentration regions. The algorithm outputs spatially- and temporally-resolved velocity measurements quantifying the front propagation. Influx speed was calculated by averaging over the entire group data to obtain mean front speed measurements for each group. The propagation front was identified using a threshold of 175 (on an 8-bit scale of 0 to 255); however, it was noted that the results were fairly robust to different threshold choices. This same threshold was used for all-time series of images, which was justified since care was taken to maintain similar imaging conditions across all experiments. A fixed threshold preserved the physical meaning of the front and allowed for quantitative comparison between populations from different experiments.
Solutions. Control mice received isosmotic saline (0.34M NaCl in ddH2O; 20 μL/g, i.p.).

[5] = Radioisotope influx (brain uptake of CSF-delivered tracers); conditions: 30 min
Procedure: Fluorescent tracers and antibodies were infused in a total volume of 10 μl at a rate of 2 μl/min or 1 μl/min into the cisterna magna. Radioisotope tracers were infused in a total volume of 5 μl at 1 μl/min.
Radioisotope Influx. […] After 30 min, animals were rapidly decapitated, the skull and dura removed, and the brain harvested. Brain radioactivity was normalized to the total radioactivity detected in a 5 μL aliquot put directly into a scintillation vial immediately before intracisternal injection. All brain tissue was weighed and solubilized in 0.5 mL tissue solubilizer (Solvable, PerkinElmer) overnight. Upon solubilization, 5 mL of scintillation cocktail was added (Ultima Gold, PerkinElmer). The injectate controls were treated in the same way as the tissue samples. All samples were analyzed by liquid scintillation spectrometry using a scintillation counter (LS 6500 Multipurpose Scintillation Counter, Beckman Coulter). The radioactivity (disintegrations per minute: dpm) remaining in the brain after injection (percent of injected dose: %ID) was determined as
where Rb is the radioactivity remaining in the brain at the end of the experiment and Ri is the radioactivity in the injectate controls for each experiment. Influx percentage was deduced as % ID. […]

OC[C@@H](O)[C@@H](O)[C@H](O)[C@H](O)CO [mannitol]
BBB permeability (BBB): no significant increase
relative cerebral blood flow (rCBF) ([1]; 30-min recording after i.p.): slight reduction
ICP relative to the isotonic controls ([1]; 30 min after i.p.): significantly and consistently declined
mean arterial blood pressure (MAP) ([1]; anesthetized mice, i.p.): reduced
tracer influx rates across the entire dorsal cortex, faster than isotonic (glymphatic CSF influx [2]): roughly 1.5 fold
increase in tracer influx area (glymphatic CSF influx [2]; at 30 min): circa 20 fold
plasma osmolality [3]: significantly elevated
reduction of the time to delivery of CSF tracer (glymphatic CSF influx [4]; KX-anesthetized mice, i.p.): roughly half
dorsal cortical surface covered by CSF tracer (glymphatic CSF influx [4]; KX-anesthetized mice, i.p., 30 min imaging): approximately 60%
increase in the influx area of CSF tracer (glymphatic CSF influx [4]; KX-anesthetized mice, i.p., vs isotonic controls): five-fold
penetration of an intracisternally-delivered CSF tracer (glymphatic CSF influx [4]; intraperitoneal): doubled
increase of influx speeds of CSF tracer (glymphatic CSF influx [4]; intraperitoneal, intracisternally-delivered CSF tracer): about 70%

^14C-inulin
increase in the fractional tracer uptake to brain ([5]; plasma hyperosmolality (HTS or mannitol i.p.) vs isotonic): roughly 125%
total injected tracer delivered to the brain parenchyma ([5]; plasma hyperosmolality (HTS or mannitol i.p.)): approximately 40%
